Data from patent EP2561858B1, “A composition for activating hair follicle stem cells to stimulate hair growth” (LABO Cosprophar AG, priority 2011, dated 2013).

Columns and labels:
[1] = target: T1, 5-alpha reductase activity I (Homo sapiens, UniProt P18405); assay: 5-alpha reductase inhibition in skin fibroblasts (marked Testosterone to DHT, TLC), type I; format: cell-based; conditions: 100µM, 1 hour at 37°C preincubation, 3 hr with marked Testosterone
T1 construct: skin fibroblasts, cells that contain different types of enzymes involved in the biosynthesis of steroids, were used; endogenous in cells; host or cells: skin fibroblasts
T1 sequence (P18405 1-259): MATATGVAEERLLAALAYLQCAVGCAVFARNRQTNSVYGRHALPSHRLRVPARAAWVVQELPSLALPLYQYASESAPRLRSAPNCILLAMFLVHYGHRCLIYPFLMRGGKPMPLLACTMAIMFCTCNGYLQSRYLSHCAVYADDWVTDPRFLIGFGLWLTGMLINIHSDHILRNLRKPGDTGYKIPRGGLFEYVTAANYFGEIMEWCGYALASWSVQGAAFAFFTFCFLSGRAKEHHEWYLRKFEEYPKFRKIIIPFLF
Method: (§1) In the experiment, skin fibroblasts, cells that contain different types of enzymes involved in the biosynthesis of steroids, were used. These cells represent a good system for the evaluation of the kinetic parameters of enzyme inhibitors such as 5-alpha reductase, delegated to steroid metabolism.
(§2) Fibroblasts were or were not incubated with 100µM of active Biochanin-A for 1 hour at 37°C before the addition of a known quantity of marked Testosterone, at the concentration of 1.5 micromoles. After 3 hr we proceeded with the extraction of the radioactive steroids. The amount of marked Testosterone and DHT are determined by TLC (Thin Layer Chromatography) to quantify 5-alpha reductase activity.

[2] = target: T2, 5-alpha reductase activity II (Homo sapiens, UniProt P31213); assay: 5-alpha reductase inhibition in skin fibroblasts (marked Testosterone to DHT, TLC), type II; format: cell-based; conditions: 100µM, 1 hour at 37°C preincubation, 3 hr with marked Testosterone
T2 construct: skin fibroblasts, cells that contain different types of enzymes involved in the biosynthesis of steroids, were used; endogenous in cells; host or cells: skin fibroblasts
T2 sequence (P31213 1-254): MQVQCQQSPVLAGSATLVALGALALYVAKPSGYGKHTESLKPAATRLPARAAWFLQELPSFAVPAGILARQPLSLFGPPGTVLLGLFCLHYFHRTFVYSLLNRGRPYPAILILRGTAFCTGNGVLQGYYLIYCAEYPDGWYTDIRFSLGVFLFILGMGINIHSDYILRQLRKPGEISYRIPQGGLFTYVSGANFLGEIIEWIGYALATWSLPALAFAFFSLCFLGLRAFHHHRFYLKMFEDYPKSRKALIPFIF
Method: as §1, §2

- 5-alpha reductase activity I compared to the negative control [1]: -64%
- 5-alpha reductase activity II compared to the negative control [2]: -93%
SMILES: COc1ccc(-c2coc3cc(O)cc(O)c3c2=O)cc1 [Biochanin-A]
